Columns and labels:
Xanthine oxidase = Xanthine oxidase (Homo sapiens, UniProt P47989); test: In vitro assay of xanthine oxidase activity; type: biochemical; details: for IC50: ± SD, triplicate
Experimental: Xanthine oxidase (XO) inhibitory potential was carried out according to the previously described method. The color produced because of hydrogen peroxide release during the process of oxidation of XO was measured at 570 nm using the plate reader EPOCH™ “MICROPLATE READER (BIOTEK)”. Forty-four microliters of xanthine oxidase buffer were mixed with 2 µL of xanthine substrate solution and 2 µL of XO. […] was applied as a positive control. This experiment was performed in triplicate.

Tyrosinase = Tyrosinase (Agaricus bisporus, UniProt C7FF04); test: In vitro assay of tyrosinase activity (DOPAchrome); type: biochemical
Sequence of Tyrosinase (C7FF04 1-392): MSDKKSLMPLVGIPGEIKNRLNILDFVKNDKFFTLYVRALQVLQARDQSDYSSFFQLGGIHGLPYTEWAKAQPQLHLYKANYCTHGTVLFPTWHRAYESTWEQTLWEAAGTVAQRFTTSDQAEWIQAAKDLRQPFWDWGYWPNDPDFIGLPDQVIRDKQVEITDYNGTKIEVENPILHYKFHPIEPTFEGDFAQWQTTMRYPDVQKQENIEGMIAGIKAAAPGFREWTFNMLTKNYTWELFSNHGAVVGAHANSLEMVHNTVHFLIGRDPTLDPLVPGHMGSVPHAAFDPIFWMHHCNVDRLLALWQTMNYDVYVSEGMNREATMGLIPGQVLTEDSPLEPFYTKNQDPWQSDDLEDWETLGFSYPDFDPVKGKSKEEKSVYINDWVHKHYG
Experimental: The tyrosinase inhibitory activity was measured from the following equation: inhibitory activity (%) = (1 − A/B) × 100, (9) where A and B are the absorbance of the mixture in presence or absence of test flavonoid, respectively. Every experiment was done in triplicate.

injured skin = details: cited from earlier work
[1] = test system: tissue transglutaminase-2, TGF-1, and vascular endothelial growth factor; design: method as in PMID 20590611; details: sham OVX rats; cited from earlier work
cutaneous wound healing = test system: cutaneous wound healing; design: method as in PMID 20193736; details: cited from earlier work
wound healing = test system: wound healing; design: method as in PMID 28989011; details: cited from earlier work
[2] = test system: incisional and excisional wounds; details: topical application; diabetic and non-diabetic rats; cited from earlier work

Sequence of Xanthine oxidase (P47989 whole entry, species assumed): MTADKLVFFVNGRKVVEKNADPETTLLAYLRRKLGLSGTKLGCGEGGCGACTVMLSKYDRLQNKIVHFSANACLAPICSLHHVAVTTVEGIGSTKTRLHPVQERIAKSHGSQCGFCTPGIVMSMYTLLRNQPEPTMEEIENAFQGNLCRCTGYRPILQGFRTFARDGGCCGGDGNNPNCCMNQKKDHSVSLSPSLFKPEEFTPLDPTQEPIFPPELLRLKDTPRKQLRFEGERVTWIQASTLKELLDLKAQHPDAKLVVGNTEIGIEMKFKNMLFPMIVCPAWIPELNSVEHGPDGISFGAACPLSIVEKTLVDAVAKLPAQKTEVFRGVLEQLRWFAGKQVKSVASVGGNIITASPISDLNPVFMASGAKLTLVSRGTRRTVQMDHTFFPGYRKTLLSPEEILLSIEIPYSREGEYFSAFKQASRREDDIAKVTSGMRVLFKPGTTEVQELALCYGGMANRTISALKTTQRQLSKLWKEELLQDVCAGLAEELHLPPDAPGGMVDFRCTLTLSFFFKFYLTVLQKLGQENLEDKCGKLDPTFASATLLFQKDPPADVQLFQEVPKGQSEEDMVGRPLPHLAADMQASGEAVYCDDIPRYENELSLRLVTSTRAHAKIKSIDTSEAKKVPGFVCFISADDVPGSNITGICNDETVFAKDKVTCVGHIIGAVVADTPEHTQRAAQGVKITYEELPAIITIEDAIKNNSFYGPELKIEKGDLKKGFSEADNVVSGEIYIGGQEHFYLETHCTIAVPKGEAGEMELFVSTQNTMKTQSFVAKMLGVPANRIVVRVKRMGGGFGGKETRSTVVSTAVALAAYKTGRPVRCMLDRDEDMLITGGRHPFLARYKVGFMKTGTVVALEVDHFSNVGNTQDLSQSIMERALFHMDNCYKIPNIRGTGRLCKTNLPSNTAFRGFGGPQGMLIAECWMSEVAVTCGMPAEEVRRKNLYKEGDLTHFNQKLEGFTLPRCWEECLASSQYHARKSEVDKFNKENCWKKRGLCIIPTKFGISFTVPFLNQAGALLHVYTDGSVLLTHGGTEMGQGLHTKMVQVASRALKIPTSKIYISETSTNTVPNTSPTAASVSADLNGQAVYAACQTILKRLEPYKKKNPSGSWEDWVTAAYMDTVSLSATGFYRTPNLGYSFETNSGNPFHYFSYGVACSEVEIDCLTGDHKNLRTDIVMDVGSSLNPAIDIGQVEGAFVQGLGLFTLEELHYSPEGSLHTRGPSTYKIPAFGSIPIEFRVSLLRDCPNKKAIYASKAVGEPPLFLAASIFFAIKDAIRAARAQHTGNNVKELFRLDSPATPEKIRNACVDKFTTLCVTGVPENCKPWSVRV

SMILES: N[C@@H](Cn1ccc(=O)c(O)c1)C(=O)O [L-mimosine, reference compound]
- IC50 (Xanthine oxidase): 3.63 ± 0.18 µM

SMILES: COc1ccc([C@@H]2CC(=O)c3c(O)cc(O)cc3O2)cc1O [Compound 5, hesperetin]
- activity against xanthine oxidase (in words) (Xanthine oxidase): weak or inactivity
- IC50 (Xanthine oxidase): > 100 µM

SMILES: O=c1c(O)c(-c2ccc(O)cc2)oc2cc(O[C@@H]3O[C@H](CO)[C@@H](O)[C@H](O)[C@H]3O)cc(O)c12 [Compound 3, kaempferol-7-O-β-D-glucopyranoside]
- IC50 (Xanthine oxidase): 6.39 ± 0.36 µM
- activity against tyrosinase (in words) (Tyrosinase): inactive or weakly active

SMILES: O=c1c(O)c(-c2ccc(O[C@@H]3O[C@H](CO)[C@@H](O)[C@H](O)[C@H]3O)cc2)oc2cc(O)cc(O)c12 [Compound 2, kaempferol-4′-O-β-D-glucopyranoside]
- activity against xanthine oxidase (in words) (Xanthine oxidase): weak or inactivity
- IC50 (Xanthine oxidase): 73.7 ± 2.33 µM
- activity against tyrosinase (in words) (Tyrosinase): inactive or weakly active

SMILES: COc1ccc([C@@H]2CC(=O)c3c(O)cc(O[C@@H]4O[C@H](CO[C@@H]5O[C@@H](C)[C@H](O)[C@@H](O)[C@H]5O)[C@@H](O)[C@H](O)[C@H]4O)cc3O2)cc1O [Hesperidin]
- healing of injured skin (injured skin): sufficient healing benefits on injured skin

SMILES: O=c1c(-c2ccc(O)cc2)coc2cc(O)cc(O)c12 [Genistein]
- effect on tissue transglutaminase-2, TGF-1 and vascular endothelial growth factor [1]: reduced tissue transglutaminase-2, TGF-1, and vascular endothelial growth factor
- wound healing (cutaneous wound healing): accelerated wound healing

SMILES: O=c1c(-c2ccc(O)cc2)c(O)oc2cc(O)cc(O)c12 [Compound 4, 2-hydroxygenistein]
- wound healing (wound healing): promote wound healing

SMILES: O=c1c(O)c(-c2ccc(O)cc2)oc2cc(O)cc(O)c12 [Compound 1, kaempferol]
- wound healing effect [2]: healing effects

From publication PMC9138151, “Bioactive Phytochemicals of Citrus reticulata Seeds—An Example of Waste Product Rich in Healthy Skin Promoting Agents” (Antioxidants, 2022)
